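96-well plates; 48 h exposure; 5 concentrations. Endpoints by linear interpolation between flanking doses. Not reached: highest tested concentration assigned. GI50 = concentration required for 50% inhibition of growth.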 Activity calls are given as the source filed them. Rule as the data show it: active = GI50 up to about 1.1 µM and inactive = higher.
What was measured:
Assay in all cases: NCI anticancer screen, dose series, 48 h
[1] = tested on: COLO 205
[2] = tested on: SK-MEL-5
[3] = tested on: ACHN
[4] = tested on: NCI-H226
[5] = tested on: T47D
[6] = tested on: SR
[7] = tested on: OVCAR-3
[8] = tested on: SNB-75
[9] = tested on: EKVX
[10] = tested on: UO-31
[11] = tested on: SK-OV-3
[12] = tested on: SF-268
[13] = tested on: NCI-H460
[14] = tested on: PC-3
[15] = tested on: HT-29
[16] = tested on: SK-MEL-2
[17] = tested on: Malme-3M
[18] = tested on: OVCAR-8
[19] = tested on: NCI/ADR-RES
[20] = tested on: MOLT-4
[21] = tested on: UACC-62
[22] = tested on: SNB-19
[23] = tested on: MDA-MB-231
[24] = tested on: Hs-578T
[25] = tested on: NCI-H522
[26] = tested on: SN12C
[27] = tested on: IGROV-1
[28] = tested on: BT-549
[29] = tested on: HCT-15
[30] = tested on: HOP-62
[31] = tested on: MCF7
[32] = tested on: UACC-257
[33] = tested on: M14
[34] = tested on: SW-620
[35] = tested on: A549
[36] = tested on: LOX IMVI
[37] = tested on: SF-295
[38] = tested on: OVCAR-5
[39] = tested on: HOP-92
[40] = tested on: OVCAR-4
[41] = tested on: SK-MEL-28
[42] = tested on: HCT-116
[43] = tested on: KM12
[44] = tested on: K562
[45] = tested on: HCC 2998
[46] = tested on: RXF 393
[47] = tested on: NCI-H23
[48] = tested on: 786-0
[49] = tested on: DU-145
[50] = tested on: A498
[51] = tested on: CCRF-CEM
[52] = tested on: CAKI-1
[53] = tested on: RPMI-8226
[54] = tested on: SF-539
[55] = tested on: U-251
[56] = tested on: MDA-MB-435
[57] = tested on: HL-60
[58] = tested on: TK-10

Measured: GI50

CC(C)(C)[Si](C)(C)OCC1OC(n2cc(I)c(=O)[nH]c2=O)C(O[Si](C)(C)C(C)(C)C)C1O[Si](C)(C)C(C)(C)C (stereo not drawn)
29.8 µM: [29]
inactive: [1] 19.1 µM | [2] 16.6 µM | [3] 15.2 µM | [4] 25.6 µM | [5] 17.1 µM | [6] 28.1 µM | [7] 14.3 µM | [8] 16.1 µM | [9] 22 µM | [10] 23.8 µM | [11] 32.1 µM | [12] 21.1 µM | [13] 15.5 µM | [14] 7.24 µM | [15] 14.3 µM | [16] > 10 µM | [17] 53.3 µM | [18] 12.7 µM | [19] > 100 µM | [20] 10.7 µM | [21] 16.7 µM | [22] 19.5 µM | [23] 15.3 µM | [24] 18.6 µM | [25] 9.68 µM | [26] 26.9 µM | [27] 17.7 µM | [28] 24 µM | [30] 20.1 µM | [31] 12.9 µM | [32] 10.5 µM | [33] 15.7 µM | [34] 14.6 µM | [35] 11.4 µM | [36] 12.5 µM | [37] 15.2 µM | [38] 24.8 µM | [39] 22.1 µM | [40] 55.8 µM

O=S(=O)(O)Oc1cc2c(c(OS(=O)(=O)O)c1)C[C@H](OS(=O)(=O)O)[C@@H](c1ccc(OS(=O)(=O)O)c(OS(=O)(=O)O)c1)O2
> 100 µM: [29]
inactive: [1] > 100 µM | [2] > 100 µM | [3] > 100 µM | [4] > 100 µM | [5] > 100 µM | [6] > 100 µM | [7] > 100 µM | [8] 43.6 µM | [9] > 100 µM | [10] > 100 µM | [11] > 100 µM | [12] > 100 µM | [13] > 100 µM | [14] > 100 µM | [15] > 100 µM | [16] > 100 µM | [17] > 100 µM | [18] > 100 µM | [19] > 100 µM | [20] > 100 µM | [21] > 100 µM | [22] > 100 µM | [23] 85.7 µM | [24] > 100 µM | [25] > 100 µM | [26] > 100 µM | [27] > 100 µM | [28] > 100 µM | [30] > 100 µM | [31] > 100 µM | [32] > 100 µM | [33] > 100 µM | [34] > 100 µM | [35] > 100 µM | [36] > 100 µM | [37] > 100 µM | [38] > 100 µM | [39] > 100 µM | [40] > 100 µM

CSC12c3cc(C)n(-c4ccccc4)c3CC(C)(C)CN1C(=O)C2Oc1ccccc1 (stereo not drawn)
28.1 µM: [29]
inactive: [1] 30.5 µM | [41] 62.7 µM | [42] 12.1 µM | [43] > 100 µM | [2] 22.4 µM | [44] 32.1 µM | [3] 36 µM | [4] 24.9 µM | [5] > 100 µM | [6] 11.3 µM | [7] > 100 µM | [8] > 100 µM | [9] 26.5 µM | [45] 41.2 µM | [10] 25.7 µM | [13] 29.1 µM | [46] > 100 µM | [47] 27.9 µM | [14] 35.2 µM | [16] 72.8 µM | [48] 83.8 µM | [18] 97.3 µM | [19] 62.4 µM | [49] > 100 µM | [20] 10.2 µM | [21] 29.3 µM | [22] > 100 µM | [23] > 100 µM | [50] 54 µM | [51] 16.6 µM | [26] > 100 µM | [27] > 100 µM | [52] > 100 µM | [28] 85.7 µM | [30] > 100 µM | [53] 7.08 µM | [31] 18 µM | [32] 19.1 µM | [33] 12.4 µM | [54] > 100 µM | [34] 40.1 µM | [35] 11.7 µM | [36] 17.5 µM | [37] 8.18 µM | [55] 93.5 µM | [56] > 100 µM | [38] > 100 µM | [39] 7.66 µM | [40] > 100 µM

COC(=O)c1ccccc1CC(Cc1ccccc1)C(=O)OC (stereo not drawn)
31.3 µM: [29]
inactive: [1] 64.6 µM | [41] > 100 µM | [42] 47.9 µM | [43] 87.3 µM | [2] 22.8 µM | [44] 37.7 µM | [3] > 100 µM | [4] 43.1 µM | [5] > 10 µM | [6] 27 µM | [7] 58.1 µM | [8] 20 µM | [9] 45.9 µM | [45] 40.3 µM | [10] 39.1 µM | [11] 36.3 µM | [12] 20.3 µM | [13] > 100 µM | [57] 18.5 µM | [46] 33.7 µM | [47] 46.6 µM | [14] 47.1 µM | [15] 55.5 µM | [16] 36.8 µM | [48] 71.3 µM | [17] 64.4 µM | [18] 87.1 µM | [19] 42.5 µM | [49] > 100 µM | [20] 27.4 µM | [22] 68.4 µM | [23] > 100 µM | [24] 56 µM | [50] 92.5 µM | [25] 50.6 µM | [51] 87.9 µM | [26] > 100 µM | [27] > 100 µM | [52] 83.4 µM | [28] > 100 µM | [30] > 100 µM | [58] 99.1 µM | [53] 27.6 µM | [31] 82 µM | [32] 72.1 µM | [33] 68.7 µM | [54] > 100 µM | [34] > 100 µM | [35] 61.9 µM | [36] 58.9 µM | [37] > 100 µM | [55] 30.8 µM | [56] 75.3 µM | [38] 62.7 µM | [40] 96.8 µM

Cc1nc2ccc(F)cc2c(Cl)c1CCCl
34.3 µM: [29]
inactive: [1] 20 µM | [41] 40.3 µM | [42] 26 µM | [43] 28.1 µM | [2] 22 µM | [44] 25.8 µM | [3] 78.7 µM | [4] 54.1 µM | [5] 38.6 µM | [6] 19.9 µM | [7] 42.3 µM | [8] 72.6 µM | [9] 13.9 µM | [45] 33.4 µM | [10] 73.1 µM | [12] 37.1 µM | [13] 30.5 µM | [57] 16.1 µM | [46] 21.7 µM | [47] 42.3 µM | [14] 44.4 µM | [15] 25 µM | [48] 34.1 µM | [17] 31.6 µM | [18] 49.3 µM | [19] 43 µM | [49] 44.8 µM | [20] 21.3 µM | [21] 27.7 µM | [22] 36.4 µM | [23] 27 µM | [24] 43.9 µM | [50] 63.1 µM | [25] 31.5 µM | [51] 18.6 µM | [27] 59.8 µM | [28] 36.9 µM | [30] 84.9 µM | [58] 62.8 µM | [53] 42.8 µM | [31] 43.5 µM | [32] 39 µM | [54] 67.3 µM | [34] 39.5 µM | [35] 42.3 µM | [36] 25.2 µM | [37] 51.1 µM | [55] 30.4 µM | [56] 26.9 µM | [39] 36 µM | [40] 83.8 µM
